The record followed here is patent US20230258642A1, “COMPOSITIONS AND METHODS FOR IDENTIFICATION OF MODULATORS OF RAS PROTEIN COMPLEXES” (QUANTA THERAPEUTICS, INC., priority 2020, published 2023).

One assay deals with T1, Annexin V (Homo sapiens, UniProt P08758).
T1 sequence (P08758 1-320): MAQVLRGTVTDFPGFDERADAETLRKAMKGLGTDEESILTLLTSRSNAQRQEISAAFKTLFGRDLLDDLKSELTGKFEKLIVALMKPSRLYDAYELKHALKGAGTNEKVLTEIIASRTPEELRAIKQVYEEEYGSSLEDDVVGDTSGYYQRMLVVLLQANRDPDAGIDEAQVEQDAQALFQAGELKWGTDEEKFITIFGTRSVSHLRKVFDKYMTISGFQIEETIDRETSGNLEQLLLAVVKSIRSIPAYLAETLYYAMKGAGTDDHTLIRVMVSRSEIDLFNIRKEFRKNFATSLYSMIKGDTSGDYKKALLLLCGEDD
The assay can be described thus: Annexin V counter-screen SHG assay on phosphatidyl serine surface. Format: binding. From the text: Annexin V binds to phosphatidyl serine membrane like KRAS^G12D-FMe in a calcium-dependent manner. However, Annexin V is structurally unrelated to KRAS/RAF1 complex. Addition of EDTA, a chelation agent, results in >80% decrease in SHG signal due to loss of Annexin V protein from the phosphatidyl serine surface. […] This assay was established as a counter-screen assay to the KRAS^G12D-FMe+SH-active RAF1^RBDCRD interaction, allowing detection of false-positives due to metal chelation or non-specific protein binding.

The target in assay [1] is T2, KRAS^G12D-FMe+RAF1^RBDCRD-SHG2 complex (Homo sapiens, UniProt P01116, G12D).
T2 construct: 1; farnesyl and carboxymethyl modification (FMe) at the C-terminal Cys
Put plainly: SHG complex assay: KRAS^G12D-FMe + SH-active RAF1^RBDCRD complex tethered to a PS bilayer. Format: binding. The conditions noted are these: complex tethered overnight in the presence of 1 mM GDP. As for the experimental part:
Factors contributing towards maximizing the complex SHG signal compared to bilayer-tethered KRAS^G12D-FMe alone were further optimized in order to develop a robust screening assay that would allow the separation of real conformational modulators from the baseline signal noise. Accordingly, a pre-formed complex was tethered to the bilayer and the baseline SHG intensity of the complex was compared to each individual component.
In comparison, each protein component was incubated on the PS bilayer to make sure the SHG signal generated by the complex was distinct from any signal produced by the individual components (FIG. 3B). The PS bilayer alone produced a baseline SHG signal around 6000. […]
Since RAF1 binding to KRAS is nucleotide dependent, the SHG signal change was monitored in the presence of 10 mM EDTA and 1 mM GDP. […] The SHG response to this control reinforced that the detected complex signal behaves according to its characterized biology.
A beam from a Ti:S femtosecond laser is used as the fundamental according to procedures known to those skilled in the art. […] Second harmonic light generated by the surface is collected, filtered from the fundamental, and detected by a photomultiplier tube (PMT) according to procedures known to those skilled in the art. A baseline signal with declining intensity due to photobleaching is recorded. […]

Each structure is given as a SMILES string.

`COc1ccc2c(c1)CN(C(=O)CCN1CCC(Cc3ccccc3)CC1)CCS2` [K201]: the “SHG response upon addition to Annexin V” value at Annexin V is listed as “dose-dependent SHG response”.
As for `O=C(O)CN(CCN(CC(=O)O)CC(=O)O)CC(=O)O` [EDTA], the “decrease in SHG signal (loss of Annexin V from phosphatidyl serine surface)” value on Annexin V is over 80%.
Turning to `Nc1nc2c(ncn2[C@@H]2O[C@H](COP(=O)(O)OP(=O)(O)O)[C@@H](O)[C@H]2O)c(=O)[nH]1` [GDP], in assay [1], the “complex SHG signal” value is “no complex SHG signal was detected”.
